{
  "source": "patent US4642332A",
  "about": "“Effective hormonal peptides: D-3-Pal^6 -LHRH” (The Board of Regents, The University of Texas System, priority 1985, dated 1987)",
  "key": {"[1]": {"system": "pituitary cells from 21 day old rats", "assay": "In vitro pituitary incubate assay (release of LH and FSH)", "assay_type": "cell-based, rat", "conditions": "for FSH ng/ml medium ± SEM / LH ng/ml medium ± SEM: Table V, mean of 9", "description": "The data in Tables IV and V are from the in vitro assay of the peptides with the pituitary incubate. This assay measures the release of LH and FSH in an in vitro system with pituitary cells from 21 day old rats. See, Bowers, C. Y. et al. on the inhibitory effects of leutinizing hormone releasing hormone analogs. Endocrinology, 106: 674 (1980).\nThe abbreviations are as follows: sc-subcutaneous, SEM-standard error of the mean; NS-not significant; ng-nanogram, and ml-milliliter. The p value represents the population coefficient .rho.(rho) which signifies whether a sample coefficient is significant or a chance deviation from zero."}, "[2]": {"system": "advanced prostatic carcinoma", "parameters": "clinical effect in patients with urinary obstruction: dose or concentration left out as unconfirmed", "conditions": "subcutaneously, cited from earlier work"}, "21 day old female rats": {"system": "21 day old female rats", "assay": "In vivo assay in rats for release of LH and FSH", "parameters": "species or system rat", "description": "In vivo rat assay performed by a modification of the method of Bowers, C. Y. et al. Endocrinology, 106, 674 (1980). 21 day old female rats were injected sc with saline or peptide. Blood samples for the RIAs of LH and FSH were collected at +15, +60, +120, or +180 minutes. (Tables VI-XI)."}, "men": {"system": "men", "conditions": "in men, after chronic administration; cited from earlier work"}, "[3]": {"conditions": "Table XI, 150 ng sc, +2 hrs, mean 5-6"}, "[4]": {"conditions": "Table XI, 150 ng sc, +3 hrs, mean 5-6"}},
  "data": [
    {"smiles": "CC(C)C[C@H](NC(=O)[C@@H](Cc1c[nH]c2ccccc12)NC(=O)[C@H](Cc1ccc(O)cc1)NC(=O)[C@H](CO)NC(=O)[C@H](Cc1c[nH]c2ccccc12)NC(=O)[C@H](Cc1c[nH]cn1)NC(=O)[C@@H]1CCC(=O)N1)C(=O)N[C@@H](CCCNC(=N)N)C(=O)N1CCC[C@H]1C(=O)NCC(N)=O", "note": "[D-Trp^6 -LHRH, pyroGlu--His--Trp--Ser--Tyr--D-Trp--Leu--Arg--Pro--Gly--NH2]", "values": [
      {"measurement": "FSH ng/ml medium ± SEM", "setting": "[1]; dosage .01 ng/ml medium", "value": "450 ± 64", "unit": "ng/mL"},
      {"measurement": "LH ng/ml medium ± SEM", "setting": "[1]; dosage .01 ng/ml medium", "value": "68 ± 31", "unit": "ng/mL"},
      {"measurement": "FSH ng/ml medium ± SEM", "setting": "[1]; dosage .03 ng/ml medium", "value": "929 ± 207", "unit": "ng/mL"},
      {"measurement": "LH ng/ml medium ± SEM", "setting": "[1]; dosage .03 ng/ml medium", "value": "209 ± 74", "unit": "ng/mL"},
      {"measurement": "FSH ng/ml medium ± SEM", "setting": "[1]; dosage .10 ng/ml medium", "value": "1714 ± 224", "unit": "ng/mL"},
      {"measurement": "LH ng/ml medium ± SEM", "setting": "[1]; dosage .10 ng/ml medium", "value": "646 ± 69", "unit": "ng/mL"},
      {"measurement": "potency, D-Qal^6 -LHRH compared with D-Trp^6 -LHRH", "setting": "[1]; comparable assays, statement in words", "value": "essentially equipotent"},
      {"measurement": "clinical effect in patients with urinary obstruction", "setting": "[2]; daily doses (so in the source)", "value": "noticeable clinical improvement"},
      {"measurement": "pain from bone metastases in patients with more advanced prostatic disease", "setting": "[2]; daily doses of 100 g and 50 g, respectively (so in the source)", "value": "relieved"},
      {"measurement": "LH ng/ml Serum ± SEM ± 60 min", "setting": "21 day old female rats; Table VII, dosage 10 mg/rat sc (so in the source)", "value": "31 ± 6", "unit": "ng/mL"},
      {"measurement": "LH ng/ml Serum ± SEM ± 15 min", "setting": "21 day old female rats; Table VII, dosage 100 mg/rat sc (so in the source), ± 15 min", "value": "51 ± 10", "unit": "ng/mL"},
      {"measurement": "LH ng/ml Serum ± SEM ± 60 min", "setting": "21 day old female rats; Table VII, dosage 100 mg/rat sc (so in the source)", "value": "259 ± 34", "unit": "ng/mL"},
      {"measurement": "+2 hrs LH ± SEM ng/ml serum", "setting": "21 day old female rats; [3]", "value": "230 ± 41", "unit": "ng/mL"},
      {"measurement": "FSH ± SEM ng/ml serum (+2 hrs)", "setting": "21 day old female rats; [3]", "value": "2332 ± 388", "unit": "ng/mL"},
      {"measurement": "+3 hrs LH ± SEM ng/ml serum", "setting": "21 day old female rats; [4]", "value": "117 ± 9", "unit": "ng/mL"},
      {"measurement": "FSH ± SEM ng/ml serum (+3 hrs)", "setting": "21 day old female rats; [4]", "value": "2065 ± 151", "unit": "ng/mL"},
      {"measurement": "Leydig cell function", "setting": "men", "value": "suppression of Leydig cell function"},
      {"measurement": "serum levels of testosterone, dihydrotestosterone and estradiol", "setting": "men", "value": "decreases"}
    ]}
  ]
}
